In patent publication US10961238B2, “Modulators of hedgehog (Hh) signaling pathway” (E-THERAPEUTICS PLC, priority 2016, dated 2021) one finds IC50 data, which are given here for 34 compounds.

Broadly, the IC50 is the point on the concentration scale where inhibition reaches its midpoint.

One experiment concerns C3H10T1/2 cells. In words: C3H assay: differentiation of C3H10T1/2 cells by mSHH, measurement of alkaline phosphatase. The format is cell-based, mouse. As to conditions: Mus musculus, C3H 10T1/2, 72 h, read-out: IC50 Ranges.
Turning to `O=C(Oc1cccnc1)N1CC(S(=O)(=O)N2CCC(c3c[nH]c4ncccc34)CC2)C1` [Compound 212, pyridin-3-yl 3-[4-(1H-pyrrolo [2,3-b]pyridin-3-yl)piperidin-1-yl]sulfonylaze-tidine-1-carboxylate], the IC50 is 10 to 100 nM.

The experiment is the same for the next values; noted with them: Mus musculus, C3H 10T1/2; C3H10T1/2 cells stimulated with mSHH for 72 hours; alkaline phosphatase activity; read-out: IC50 Ranges.
For the compound `C[C@@H]1CN(C(=O)N2CC(S(=O)(=O)N3CCC(c4cnc5occc5c4)CC3)C2)C[C@H](C)O1` [Compound 35, [(2R,6S)-2,6-dimethylmorpholin-4-yl]-[3-(4-furo[2,3-b]pyridin-5-ylpiperidin-1-yl)sulfonylaze-tidin-1-yl]methanone], the IC50 is 100 to 1000 nM.

`N#Cc1ccnc(N2CC(S(=O)(=O)N3CCC(c4c[nH]c5ncccc45)CC3)C2)c1` [Compound 242, 2-[3-[4-(1H-pyrrolo[2,3-b]pyridin-3-yl)piperidin-1-yl]sulfonylaze-tidin-1-yl] pyridine-4-carbonitrile]: the IC50 lay within 10 to 100 nM.

In the case of `CC(C)CC(=O)N1CC(S(=O)(=O)N2CCC(c3c[nH]c4ncccc34)CC2)C1` [Compound 195, 3-methyl-1-[3-[4-(1H-pyrrolo[2,3-b]pyridin-3-yl)piperidin-1-yl]sulfonylaze-tidin-1-yl]butan-1-one], the IC50 was in the range of 10 to 100 nM.

Consider `C[C@](O)(CC(=O)N1CC(S(=O)(=O)N2CCC(c3coc4cccnc34)CC2)C1)C(F)(F)F` [Compound 406, 4,4,4-trifluoro-1-[3-(4-furo[3,2-b]pyridin-3-ylpiperidin-1-yl)sulfonylaze-tidin-1-yl]-3-hydroxy-3-methylbutan-1-one], for which the IC50 fell in the range of 10 to 100 nM.

As for `O=C(NC1(C(F)(F)F)CC1)[C@H]1C[C@H](S(=O)(=O)N2CCC(c3coc4cccnc34)CC2)C1` [Compound 345, trans-3-(4-furo[3,2-b]pyridin-3-ylpiperidin-1-yl)sulfonyl-N-[1-(trifluoromethyl)cyclopropyl] cyclobutane-1-carboxamide], the IC50 lay in the range of 100 to 1000 nM.

In the case of `CC(C)(C)OC(=O)N1CC(S(=O)(=O)N2CCC(c3ccc(Cl)cc3)CC2)C1` [Compound 304, tert-butyl 3-[4-(4-chlorophenyl)piperidin-1-yl]sulfonylaze-tidine-1-carboxylate], the IC50 lay within 100 to 1000 nM.

Regarding `CC(C)(C)OC(=O)N1CCC(S(=O)(=O)N2CC=C(c3ccnc4[nH]ccc34)CC2)CC1` [Compound 236, tert-butyl 4-[[4-(1H-pyrrolo[2,3-b]pyridin-4-yl)-3,6-dihydro-2H-pyridin-1-yl]sulfonyl] piperidine-1-carboxylate], the IC50 lay within 1000 to 10000 nM.

`CC(C)(C)OC(=O)N1CC(S(=O)(=O)N2CCC(c3c[nH]c4nccnc34)CC2)C1` [Compound 128, tert-Butyl 3-[[4-(5H-pyrrolo[2,3-b]pyrazin-7-yl)-1-piperidyl]sulfonyl] azetidine-1-carboxylate]: the IC50 lay within 10 to 100 nM.

Take `CC(C)(C)NC(=O)N1CC(S(=O)(=O)N2CCC(c3ccc(C#N)cc3)CC2)C1` [Compound 352, N-tert-butyl-3-[4-(4-cyanophenyl)piperidin-1-yl] sulfonylazetidine-1-carboxamide]: the IC50 lay within 100 to 1000 nM.

Turning to `CC(C)N(CC(=O)N1CC(S(=O)(=O)N2CCC(c3ccccc3)CC2)C1)C(C)C` [Compound 306, 2-[di(propan-2-yl)amino]-1-[3-(4-phenylpiperidin-1-yl)sulfonylaze-tidin-1-yl]ethanone], the IC50 was in the range of 100 to 1000 nM.

For `CC[C@@H](C)OC(=O)N1CC(S(=O)(=O)N2CCC(c3c[nH]c4ncccc34)CC2)C1` [Compound 200, [(2R)-butan-2-yl]3-[4-(1H-pyrrolo[2,3-b]pyridin-3-yl)piperidin-1-yl]sulfonylaze-tidine-1-carboxylate], the IC50 was in the range of 10 to 100 nM.

In the case of `O=C(OCCN1CCOCC1)N1CC(S(=O)(=O)N2CCC(c3c[nH]c4ncccc34)CC2)C1` [Compound 54, 2-morpholin-4-ylethyl 3-[4-(1H-pyrrolo [2,3-b]pyridin-3-yl)piperidin-1-yl]sulfonylaze-tidine-1-carboxylate], the IC50 lay within 10 to 100 nM.

As to `Cc1cccc(F)c1NC(=O)N1CC(S(=O)(=O)N2CCC(c3c[nH]c4ncccc34)CC2)C1` [Compound 387, N-(2-fluoro-6-methylphenyl)-3-[4-(1H-pyrrolo[2,3-b]pyridin-3-yl)piperidin-1-yl]sulfonylaze-tidine-1-carboxamide], the IC50 fell in the range of 10 to 100 nM.

For the compound `COc1ccc(C2CCN(S(=O)(=O)C3CN(C(=O)OC(C)(C)C)C3)CC2)cc1` [Compound 6, tert-butyl 3-[4-(4-methoxyphenyl)piperidin-1-yl]sulfonylaze-tidine-1-carboxylate], the IC50 lay in the range of 100 to 1000 nM.

In the case of `Cc1ccc(F)cc1NC(=O)N1CC(S(=O)(=O)N2CCC(c3ccc(F)cc3)CC2)C1` [Compound 367, N-(5-fluoro-2-methylphenyl)-3-[4-(4-fluorophenyl)piperidin-1-yl]sulfonylaze-tidine-1-carboxamide], the IC50 lay within 1000 to 10000 nM.

As to `O=C(N1CCCC1)N1CC(S(=O)(=O)N2CCC(c3c[nH]c4ncccc34)CC2)C1` [Compound 87, pyrrolidin-1-yl-[3-[4-(1H-pyrrolo[2,3-b]pyridin-3-yl)piperidin-1-yl]sulfonylaze-tidin-1-yl]methanone], the IC50 lay in the range of 100 to 1000 nM.

On to `O=C(C1CCCCC1)N1CC(S(=O)(=O)N2CCC(c3c[nH]c4ncccc34)CC2)C1` [Compound 189, Cyclohexyl-[3-[[4-(1H-pyrrolo[2,3-b]pyridin-3-yl)-1-piperidyl]sulfonyl]azetidin-1-yl]methanone], for which the IC50 was in the range of 10 to 100 nM.

For the compound `CC(C)(C)OC(=O)N1CCC(S(=O)(=O)N2CCC(C3CCOCC3)CC2)CC1` [Compound 20, tert-butyl 4-[4-(oxan-4-yl)piperidin-1-yl]sulfonylpiper-idine-1-carboxylate], the IC50 fell in the range of 1000 to 10000 nM.

As to `COC(=O)[C@H]1C[C@@H](S(=O)(=O)N2CCC(c3c[nH]c4ncccc34)CC2)C1` [Compound 273], the IC50 was 100 to 1000 nM.

As to `CC(C)(C)OC(=O)N1CC(S(=O)(=O)N2CCC(c3cn(S(C)(=O)=O)c4ncccc34)CC2)C1` [Compound 93, tert-Butyl 3-[[4-(1-methylsulfonylpyrrolo[2,3-b]pyridin-3-yl)-1-piperidyl]sulfonyl]azetidine-1-carboxylate], the IC50 is 1000 to 10000 nM.

On to `CN(C(=O)[C@H]1C[C@@H](S(=O)(=O)N2CCC(c3c[nH]c4ncccc34)CC2)C1)C(C)(C)C` [Compound 289, cis-N-tert-butyl-N-methyl-3-[[4-(1H-pyrrolo[2,3-b]pyridin-3-yl)-1-piperidyl]sulfonyl]cyclobutanecarboxamide], for which the half-maximal inhibitory concentration (IC50) lay in the range of 10 to 100 nM.

For `Cc1noc(C)c1CC(=O)N1CC(S(=O)(=O)N2CCC(c3ccncc3)CC2)C1` [Compound 205, 2-(3,5-dimethyl-1,2-oxazol-4-yl)-1-[3-(4-pyridin-4-ylpiperidin-1-yl)sulfonylaze-tidin-1-yl]ethanone], the IC50 fell in the range of 10 to 100 nM.

In the case of `CC1(C)CCCC(C)(C)N1C(=O)N1CC(S(=O)(=O)N2CCC(c3c[nH]c4ncccc34)CC2)C1` [Compound 64, [3-[4-(1H-pyrrolo[2,3-b]pyridin-3-yl)piperidin-1-yl]sulfonylaze-tidin-1-yl]-(2,2,6,6-tetramethylpiperidin-1-yl)methanone], the IC50 lay within 10 to 100 nM.

As to `O=S(=O)(C1CN(C2CCCC2)C1)N1CCC(c2c[nH]c3ncccc23)CC1` [Compound 158], the IC50 fell in the range of 1000 to 10000 nM.

For the compound `CC(C)(C)OC(=O)N1CCC(S(=O)(=O)N2CCC(c3ccnc4ccccc34)CC2)CC1` [Compound 11, tert-butyl 4-(4-quinolin-4-ylpiperidin-1-yl)sulfonylpiper-idine-1-carboxylate], the IC50 was in the range of 100 to 1000 nM.

As to `CC(C)(C)OC(=O)N1CC(S(=O)(=O)N2CCC(C3COc4cccnc43)CC2)C1` (stereo not shown) [Compound 127, tert-butyl 3-[4-(2,3-dihydrofuro[3,2-b]pyridin-3-yl)piperidin-1-yl]sulfonylaze-tidine-1-carboxylate], the IC50 is 100 to 1000 nM.

With `Cc1ccc(F)cc1NC(=O)N1CC(S(=O)(=O)N2CCC(c3ccc(C#N)cc3)CC2)C1` [Compound 366, 3-[4-(4-cyanophenyl)piperidin-1-yl]sulfonyl-N-(5-fluoro-2-methylphenyl) azetidine-1-carboxamide], the IC50 was in the range of 100 to 1000 nM.

As to `Cn1cc(C2CCN(S(=O)(=O)C3CN(C(=O)OC(C)(C)C)C3)CC2)c2cccnc21` [Compound 94, tert-Butyl 3-[[4-(1-methylpyrrolo[2,3-b]pyridin-3-yl)-1-piperidyl]sulfonyl]azetidine-1-carboxylate], the 50% inhibitory concentration (IC50) is 100 to 1000 nM.

In the case of `O=C(OC1CCC1)N1CC(S(=O)(=O)N2CCC(c3c[nH]c4ncccc34)CC2)C1` [Compound 198, cyclobutyl 3-[4-(1H-pyrrolo[2,3-b]pyridin-3-yl)piperidin-1-yl]sulfonylaze-tidine-1-carboxylate], the IC50 was 10 to 100 nM.

Turning to `CC(C)[C@H](CO)NC(=O)N1CC(S(=O)(=O)N2CCC(c3c[nH]c4ncccc34)CC2)C1` [Compound 251, N-[(2R)-1-hydroxy-3-methylbutan-2-yl]-3-[4-(1H-pyrrolo[2,3-b]pyridin-3-yl)piperidin-1-yl]sulfonylaze-tidine-1-carboxamide], the IC50 fell in the range of 10 to 100 nM.

Consider `O=C(OCc1cccc(Oc2ccccc2)c1)N1CC(S(=O)(=O)N2CCC(c3c[nH]c4ncccc34)CC2)C1` [Compound 207, (3-phenoxyphenyl) methyl 3-[4-(1H-pyrrolo [2,3-b]pyridin-3-yl)piperidin-1-yl]sulfonylaze-tidine-1-carboxylate], for which the IC50 fell in the range of 10 to 100 nM.

For the compound `CC1(C)COCC(C)(C)N1C(=O)N1CC(S(=O)(=O)N2CCC(c3c[nH]c4ncccc34)CC2)C1` [Compound 169, [3-[4-(1H-pyrrolo[2,3-b]pyridin-3-yl)piperidin-1 yl]sulfonylaze-tidin-1-yl]-(3,3,5,5-tetramethylmorpholin-4-yl)methanone], the IC50 was in the range of 10 to 100 nM.

Take `Cc1ccnc(N2CC(S(=O)(=O)N3CCC(c4c[nH]c5ncccc45)CC3)C2)c1C#N` [Compound 187, 4-methyl-2-[3-[4-(1H-pyrrolo[2,3-b]pyridin-3-yl)piperidin-1-yl]sulfonylaze-tidin-1-yl]pyridine-3-carbonitrile]: the IC50 lay within 100 to 1000 nM.
